Source: PubChem BioAssay (NCI)
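Step 1: Grow cells in 96-well plates. Step 2: Expose to compound for 48 hours at 5 concentrations. Step 3: Interpolate endpoints linearly; if unreached, use highest concentration. The concentration for full growth arrest is given as TGI.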

Tests used:
Assay in all cases: inhibition of tumour cell growth, NCI panel, 48 h
A498 renal = test system: A498 renal
BT-549 breast = test system: BT-549 breast
CAKI-1 renal = test system: CAKI-1 renal
CCRF-CEM leukemia = test system: CCRF-CEM leukemia
DU-145 prostate = test system: DU-145 prostate
HCC-2998 colon = test system: HCC-2998 colon
HCT-116 colon = test system: HCT-116 colon
K-562 leukemia = test system: K-562 leukemia
M14 melanoma = test system: M14 melanoma
MDA-MB-435 = test system: MDA-MB-435
OVCAR-3 ovarian = test system: OVCAR-3 ovarian
OVCAR-8 ovarian = test system: OVCAR-8 ovarian
SK-MEL-2 melanoma = test system: SK-MEL-2 melanoma
SNB-75 CNS = test system: SNB-75 CNS
UACC-257 melanoma = test system: UACC-257 melanoma

| SMILES | TGI (A498 renal) | TGI (BT-549 breast) | TGI (CAKI-1 renal) | TGI (CCRF-CEM leukemia) | TGI (DU-145 prostate) | TGI (HCC-2998 colon) | TGI (HCT-116 colon) | TGI (K-562 leukemia) | TGI (M14 melanoma) | TGI (MDA-MB-435) | TGI (OVCAR-3 ovarian) | TGI (OVCAR-8 ovarian) | TGI (SK-MEL-2 melanoma) | TGI (SNB-75 CNS) | TGI (UACC-257 melanoma) |
| --- | --- | --- | --- | --- | --- | --- | --- | --- | --- | --- | --- | --- | --- | --- | --- |
| CC(=O)NC1C(OCc2ccccc2)OC(CO)C(O)C1OC(C)C(=O)NC(C(=O)NC(CCC(=O)Nc1ccc2c(c1)CN1C(=O)c3ccccc3C1=N2)C(N)=O)C(C)C (centres undefined) | > 100 µM | > 100 µM | > 100 µM | > 100 µM | > 100 µM | > 100 µM | > 100 µM | > 100 µM | > 100 µM | > 100 µM | > 100 µM | > 100 µM | > 100 µM | > 100 µM | > 100 µM |
| NC(N)=NCCCS(=O)(=O)Nc1ccc(Nc2c3ccccc3nc3cc([N+](=O)[O-])ccc23)cc1 | 65.8 µM | 94.4 µM | > 93.5 µM | > 74.9 µM | 25.2 µM | 44.1 µM | 63.5 µM | > 89.7 µM | > 87.2 µM | > 100 µM | 66.4 µM | > 92.9 µM | 66.1 µM | 45.8 µM | 68.1 µM |
| Cc1cc2c(cc1-c1cc3c(cc1C)C(C(C)C)=C(O)C(=O)/C3=C\Nc1cccc3c(N)cccc13)/C(=C/Nc1cccc3c(N)cccc13)C(=O)C(O)=C2C(C)C | > 100 µM | > 100 µM | > 100 µM | > 100 µM | > 100 µM | > 100 µM | > 100 µM | > 100 µM | > 100 µM | > 100 µM | > 100 µM | > 100 µM | > 100 µM | > 100 µM | > 100 µM |
| COc1cc([C@@H]2c3cc4c(cc3[C@@H](N=Cc3ccc(C(=O)O[C@H]5C[C@H]6OC[C@@]6(OC(C)=O)[C@H]6[C@H](OC(=O)c7ccccc7)[C@]7(O)C[C@H](OC(=O)[C@H](OC(=O)c8ccc(C=N[C@@H]9c%10cc%11c(cc%10[C@@H](c%10cc(OC)c(O)c(OC)c%10)[C@H]%10C(=O)OC[C@@H]%109)OCO%11)cc8)[C@@H](NC(=O)c8ccccc8)c8ccccc8)C(C)=C([C@@H](OC(C)=O)C(=O)[C@]56C)C7(C)C)cc3)C3COC(=O)C32)OCO4)cc(C)c1O (some centres undefined) | 29.2 µM | > 50 µM | > 50 µM | > 50 µM | > 50 µM | > 50 µM | > 50 µM | > 50 µM | > 21 µM | 9.32 µM | > 31.9 µM | > 50 µM | > 50 µM | > 50 µM | > 50 µM |
| COC(=O)C1(Cc2ccccc2C)Cc2ccc(C)cc2C1=O (centres undefined) | > 100 µM | > 100 µM | > 100 µM | > 100 µM | > 100 µM | > 100 µM | > 100 µM | > 100 µM | > 100 µM | > 100 µM | > 100 µM | > 100 µM | 47.7 µM | > 100 µM | > 100 µM |
| COc1ccc(C(c2ccccc2)N2C(=O)CCC2C(=O)O)cc1OC (centres undefined) | > 100 µM | > 100 µM | > 100 µM | > 100 µM | > 100 µM | > 100 µM | > 100 µM | > 100 µM | > 100 µM | > 100 µM | > 100 µM | > 100 µM | > 100 µM | > 100 µM | > 100 µM |
| OCC1OC(NC(=S)NCSCCC(F)(F)C(F)(F)C(F)(F)C(F)(F)C(F)(F)C(F)(F)F)C(O)C(O)C1O (centres undefined) | 12.6 µM | > 100 µM | > 100 µM | 91.3 µM | > 100 µM | > 100 µM | > 100 µM | 56.4 µM | 62.1 µM | > 100 µM | > 100 µM |  | > 100 µM | > 100 µM | > 100 µM |
| CCOC(=O)c1c(C)n(-c2ccc(C)cc2)c2c1cc(O)c1[nH]c3c(c12)CCCC3 | 56.2 µM | 26.2 µM | > 100 µM | 7.64 µM | 42.5 µM | 34.1 µM | 92.6 µM | 48.8 µM | 42.6 µM | 62.2 µM | 51.1 µM | 82.3 µM | 33.7 µM | 12.4 µM | 56.7 µM |
| CC(C)Cn1cnnc1NS(=O)(=O)c1cc(C(=O)NN)c(Cl)cc1S | > 10 µM | > 10 µM | > 10 µM | > 10 µM | > 10 µM | > 10 µM | > 10 µM | > 10 µM | > 10 µM | > 10 µM | > 10 µM | > 10 µM | > 10 µM | > 10 µM | > 10 µM |
| O=Cc1cc(O)ccc1Br | > 100 µM | > 83.4 µM | 48.1 µM | 15.5 µM | > 100 µM | 30.1 µM | 47.8 µM | 19.2 µM | > 92.2 µM | 9.77 µM | > 91.8 µM | 53.7 µM | > 93.2 µM | > 100 µM | > 91.1 µM |
| O=c1[nH]nc(Cc2ccc(Cl)cc2)n1Nc1ccccc1 | > 100 µM | > 100 µM | > 100 µM | > 100 µM | 27.8 µM | > 100 µM | > 100 µM | > 100 µM | > 100 µM | > 100 µM | > 100 µM | > 100 µM | > 100 µM | > 100 µM | > 100 µM |
| O=[N+]([O-])c1ccc2nc(/C=C(\O)c3ccccc3)c(/C=C(\O)c3ccc(Cl)cc3)nc2c1 | > 100 µM | > 100 µM | > 100 µM | > 100 µM | > 100 µM | > 100 µM | > 100 µM | > 100 µM | > 100 µM | > 100 µM | > 100 µM | > 100 µM | > 100 µM | 64.9 µM | > 100 µM |
| COc1cc(/C=C2\N=C(c3ccccc3)N(/N=C/c3cc4cc(C)ccc4nc3Cl)C2=O)ccc1O | 55.3 µM | > 100 µM | > 100 µM | 36 µM | > 100 µM | > 100 µM | 51.8 µM | > 100 µM | > 100 µM | 36.7 µM | > 100 µM | > 100 µM | 38.4 µM | 83.9 µM | > 100 µM |
